# Organism: Rattus norvegicus
# Assay: Open TG-GATES - Regimen: Daily Repeat
# Type: toxicity, organism-based, Sprague-Dawley
# Design: regimen Daily Repeat, gender Male, age 6 weeks
# Details: in vivo, po, 0 mg/kg, route gavage, dose level Control; for APTT / Bas / Eos / Fbg / Hb / Ht / Lym / MCH / MCHC / MCV / Mono / Neu / PT / Plat / RBC / Ret / WBC: tissue Blood; for KIDNEY_L / KIDNEY_R / KIDNEY_TOTAL: tissue Kidney; for LIVER: tissue Liver; for A/G / ALP / ALT / AST / BUN / CRE / Ca / Cl / DBIL / GLC / IP / K / LDH / Na / PL / RALB / TBIL / TC / TG / TP / gamma-GTP: tissue Plasma
smiles,measurement,setting,value
CN(C)CCC(c1ccc(Cl)cc1)c1ccccn1 (configuration not stated) [CHLORPHENIRAMINE],TERMINAL_BW,"72 h, time 3 day",224.6 g
same,APTT,"72 h, time 3 day",23.2 s
same,Bas,"72 h, time 3 day",0%
same,Eos,"72 h, time 3 day",1.2%
same,Fbg,"72 h, time 3 day",295.2 mg/dL
same,Hb,"72 h, time 3 day",13.4 g/dL
same,Ht,"72 h, time 3 day",41.7%
same,Lym,"72 h, time 3 day",77.6%
same,MCH,"72 h, time 3 day",20.6 pg
same,MCHC,"72 h, time 3 day",32.1%
same,MCV,"72 h, time 3 day",64.2 fL
same,Mono,"72 h, time 3 day",2.8%
same,Neu,"72 h, time 3 day",17.4%
same,PT,"72 h, time 3 day",14.5 s
same,Plat,"72 h, time 3 day",127.5 x10_4/uL
same,RBC,"72 h, time 3 day",650.8 x10_4/ul
same,Ret,"72 h, time 3 day",6.9%
same,WBC,"72 h, time 3 day",76.4 x10_2/uL
same,KIDNEY_L,"72 h, time 3 day",0.9 g
same,KIDNEY_R,"72 h, time 3 day",0.9 g
same,KIDNEY_TOTAL,"72 h, time 3 day",1.9 g
same,LIVER,"72 h, time 3 day",10.1 g
same,A/G,"72 h, time 3 day",0.9
same,ALP,"72 h, time 3 day",1824 IU/L
same,ALT,"72 h, time 3 day",44.2 IU/L
same,AST,"72 h, time 3 day",69.4 IU/L
same,BUN,"72 h, time 3 day",14.6 mg/dL
same,CRE,"72 h, time 3 day",0.2 mg/dL
same,Ca,"72 h, time 3 day",10.5 mg/dL
same,Cl,"72 h, time 3 day",107.2 meq/L
same,DBIL,"72 h, time 3 day",0.014 mg/dL
same,GLC,"72 h, time 3 day",182.4 mg/dL
same,IP,"72 h, time 3 day",7.7 mg/dL
same,K,"72 h, time 3 day",4.5 meq/L
same,LDH,"72 h, time 3 day",109.4 IU/L
same,Na,"72 h, time 3 day",142.2 meq/L
same,PL,"72 h, time 3 day",151.6 mg/dL
same,RALB,"72 h, time 3 day",2.7 g/dL
same,TBIL,"72 h, time 3 day",0.034 mg/dL
same,TC,"72 h, time 3 day",79 mg/dL
same,TG,"72 h, time 3 day",87.8 mg/dL
same,TP,"72 h, time 3 day",5.8 g/dL
same,gamma-GTP,"72 h, time 3 day",1.4 IU/L
same,TERMINAL_BW,"[…], time 7 day",265.1 g
same,TERMINAL_BW,"[…], time 14 day",314.1 g
same,TERMINAL_BW,"[…], time 28 day",409.3 g
same,APTT,"[…], time 7 day",18.7 s
same,Bas,"[…], time 7 day",0%
same,Eos,"[…], time 7 day",0.8%
same,Fbg,"[…], time 7 day",323.4 mg/dL
same,Hb,"[…], time 7 day",14 g/dL
same,Ht,"[…], time 7 day",43.3%
same,Lym,"[…], time 7 day",78.6%
same,MCH,"[…], time 7 day",20.5 pg
same,MCHC,"[…], time 7 day",32.4%
same,MCV,"[…], time 7 day",63.3 fL
same,Mono,"[…], time 7 day",2.8%
same,Neu,"[…], time 7 day",16.6%
same,PT,"[…], time 7 day",13.9 s
same,Plat,"[…], time 7 day",113.9 x10_4/uL
same,RBC,"[…], time 7 day",684.8 x10_4/ul
same,Ret,"[…], time 7 day",5.9%
same,WBC,"[…], time 7 day",83.1 x10_2/uL
same,APTT,"[…], time 14 day",20.3 s
same,Bas,"[…], time 14 day",0.4%
same,Eos,"[…], time 14 day",1%
same,Fbg,"[…], time 14 day",308.2 mg/dL
same,Hb,"[…], time 14 day",14.8 g/dL
same,Ht,"[…], time 14 day",45.2%
same,Lym,"[…], time 14 day",76.8%
same,MCH,"[…], time 14 day",20.4 pg
same,MCHC,"[…], time 14 day",32.7%
same,MCV,"[…], time 14 day",62.2 fL
same,Mono,"[…], time 14 day",2.2%
same,Neu,"[…], time 14 day",18.8%
same,PT,"[…], time 14 day",14.5 s
same,Plat,"[…], time 14 day",111 x10_4/uL
same,RBC,"[…], time 14 day",727.2 x10_4/ul
same,Ret,"[…], time 14 day",3.8%
same,WBC,"[…], time 14 day",90.4 x10_2/uL
same,APTT,"[…], time 28 day",17.8 s
same,Bas,"[…], time 28 day",0.2%
same,Eos,"[…], time 28 day",1.2%
same,Fbg,"[…], time 28 day",280.8 mg/dL
same,Hb,"[…], time 28 day",15.4 g/dL
same,Ht,"[…], time 28 day",45.7%
same,Lym,"[…], time 28 day",76.4%
same,MCH,"[…], time 28 day",18.9 pg
same,MCHC,"[…], time 28 day",33.7%
same,MCV,"[…], time 28 day",56.2 fL
same,Mono,"[…], time 28 day",2%
same,Neu,"[…], time 28 day",19.8%
same,PT,"[…], time 28 day",14.5 s
same,Plat,"[…], time 28 day",115.9 x10_4/uL
same,RBC,"[…], time 28 day",813.8 x10_4/ul
same,Ret,"[…], time 28 day",2.5%
same,WBC,"[…], time 28 day",96.5 x10_2/uL
same,KIDNEY_L,"[…], time 7 day",1 g
same,KIDNEY_R,"[…], time 7 day",1 g
same,KIDNEY_TOTAL,"[…], time 7 day",2.1 g
same,KIDNEY_L,"[…], time 14 day",1.1 g
same,KIDNEY_R,"[…], time 14 day",1.1 g
same,KIDNEY_TOTAL,"[…], time 14 day",2.2 g
same,KIDNEY_L,"[…], time 28 day",1.4 g
same,KIDNEY_R,"[…], time 28 day",1.4 g
same,KIDNEY_TOTAL,"[…], time 28 day",2.8 g
same,LIVER,"[…], time 7 day",12.2 g
same,LIVER,"[…], time 14 day",12.9 g
same,LIVER,"[…], time 28 day",17.3 g
same,A/G,"[…], time 7 day",0.8
same,ALP,"[…], time 7 day",1518.2 IU/L
same,ALT,"[…], time 7 day",43.2 IU/L
same,AST,"[…], time 7 day",65.8 IU/L
same,BUN,"[…], time 7 day",15.4 mg/dL
same,CRE,"[…], time 7 day",0.2 mg/dL
same,Ca,"[…], time 7 day",11.6 mg/dL
same,Cl,"[…], time 7 day",104.8 meq/L
same,DBIL,"[…], time 7 day",0.018 mg/dL
same,GLC,"[…], time 7 day",193.8 mg/dL
same,IP,"[…], time 7 day",8.1 mg/dL
same,K,"[…], time 7 day",4.2 meq/L
same,LDH,"[…], time 7 day",90.8 IU/L
same,Na,"[…], time 7 day",143.2 meq/L
same,PL,"[…], time 7 day",166.4 mg/dL
same,RALB,"[…], time 7 day",2.8 g/dL
same,TBIL,"[…], time 7 day",0.034 mg/dL
same,TC,"[…], time 7 day",86.6 mg/dL
same,TG,"[…], time 7 day",139.6 mg/dL
same,TP,"[…], time 7 day",6.1 g/dL
same,gamma-GTP,"[…], time 7 day",1 IU/L
same,A/G,"[…], time 14 day",0.8
same,ALP,"[…], time 14 day",1632.2 IU/L
same,ALT,"[…], time 14 day",38.2 IU/L
same,AST,"[…], time 14 day",66.4 IU/L
same,BUN,"[…], time 14 day",15.6 mg/dL
same,CRE,"[…], time 14 day",0.2 mg/dL
same,Ca,"[…], time 14 day",10.9 mg/dL
same,Cl,"[…], time 14 day",106.4 meq/L
same,DBIL,"[…], time 14 day",0.016 mg/dL
same,GLC,"[…], time 14 day",187.2 mg/dL
same,IP,"[…], time 14 day",6.9 mg/dL
same,K,"[…], time 14 day",4.2 meq/L
same,LDH,"[…], time 14 day",77 IU/L
same,Na,"[…], time 14 day",143.4 meq/L
same,PL,"[…], time 14 day",153.4 mg/dL
same,RALB,"[…], time 14 day",2.8 g/dL
same,TBIL,"[…], time 14 day",0.038 mg/dL
same,TC,"[…], time 14 day",72.6 mg/dL
same,TG,"[…], time 14 day",126 mg/dL
same,TP,"[…], time 14 day",6.1 g/dL
same,gamma-GTP,"[…], time 14 day",1 IU/L
same,A/G,"[…], time 28 day",0.8
same,ALP,"[…], time 28 day",1089.8 IU/L
same,ALT,"[…], time 28 day",37.2 IU/L
same,AST,"[…], time 28 day",60.4 IU/L
same,BUN,"[…], time 28 day",17.4 mg/dL
same,CRE,"[…], time 28 day",0.2 mg/dL
same,Ca,"[…], time 28 day",10.6 mg/dL
same,Cl,"[…], time 28 day",106.8 meq/L
same,DBIL,"[…], time 28 day",0.016 mg/dL
same,GLC,"[…], time 28 day",186.2 mg/dL
same,IP,"[…], time 28 day",6.3 mg/dL
same,K,"[…], time 28 day",4.2 meq/L
same,LDH,"[…], time 28 day",77.4 IU/L
same,Na,"[…], time 28 day",144.8 meq/L
same,PL,"[…], time 28 day",168.4 mg/dL
same,RALB,"[…], time 28 day",2.9 g/dL
same,TBIL,"[…], time 28 day",0.026 mg/dL
same,TC,"[…], time 28 day",79.6 mg/dL
same,TG,"[…], time 28 day",174 mg/dL
same,TP,"[…], time 28 day",6.4 g/dL
same,gamma-GTP,"[…], time 28 day",1 IU/L
